In patent US20260265699A1, “STANDARDISING PLURIPOTENT STEM CELLS” (United Kingdom Research and Innovation, priority 2023, published 2026):
Entries after “also recorded” stand apart in the source; their conditions may differ.

How the values were obtained:
Type in all cases: cell-based, human
PS cells = test: PSC basal (maintenance) culture; conditions: inhibition of SRC at basal culture, prolonged exposure
Description: (§1) The so called “unguided protocol” relies on the natural propensity of PSCs to differentiate to neural fate and specifically forebrain when not exposed to any growth factors. The inventors cultured PSCs in Stemflex (Thermo) medium on plates coated with Matrigel growth factor reduced (Corning) and for generation of brain organoids they used STEMdiff Cerebral Organoid Kit (Stemcell Technologies). Despite these highly standardised conditions (FIG. 1A), the outcome of the protocol (i.e. the identity and quality of the tissues produced) can vary depending on the cell line that was used in the protocol or even between different batches of the same line (FIGS. 1 B and C). This makes producing good quality organoids from different lines difficult and unpredictable. To address this variability that plagues not only the neural organoid field but also others that rely on 2D and 3D differentiation to a variety of cell types, the inventors investigated the potential sources of this variability in PSCs and potential treatments to address this problem or, in other words, to standardise the performance of PSCs during differentiation.
There is a huge body of literature describing potential sources of PSC variability and a similar number of publications about ways to address this in a particular context, for example to increase efficiency of differentiation towards a certain tissue type. […]

[1] = tested on: PSC lines that did not readily differentiate into neural tissue; test: Cerebral organoid differentiation, unguided protocol (STEMdiff Cerebral Organoid Kit), panel of bad differentiator lines; conditions: for Effect: organoid morphology: inhibition of Wnt at organoid stage, added at embedding stage
Description: The so called “unguided protocol” relies on the natural propensity of PSCs to differentiate to neural fate and specifically forebrain when not exposed to any growth factors. The inventors cultured PSCs in Stemflex (Thermo) medium on plates coated with Matrigel growth factor reduced (Corning) and for generation of brain organoids they used STEMdiff Cerebral Organoid Kit (Stemcell Technologies). […] To address this variability that plagues not only the neural organoid field but also others that rely on 2D and 3D differentiation to a variety of cell types, the inventors investigated the potential sources of this variability in PSCs and potential treatments to address this problem or, in other words, to standardise the performance of PSCs during differentiation.
Because neural differentiation represents the default program upon pluripotency exit, the ability of a cell line to undergo such unguided differentiation is also a good indication of their pluripotent state. The other approach was to in depth characterise PSC lines that either produce good or bad organoids by proteomics and phosphoproteomics, analysis of already available bulk RNAseq data to learn about their transcriptome, and by ATACseq to learn about open chromatin patterns. […] Based on the combination of information gathered from both approaches, a number of treatments were chosen to test on the bad differentiators.

[2] = tested on: kolf2 cells (organoid non-competent batch); test: Cerebral organoid differentiation, unguided protocol, bad batch of kolf2; conditions: generation of organoids with MEK inhibition
Description: as §1
(§2) Because neural differentiation represents the default program upon pluripotency exit, the ability of a cell line to undergo such unguided differentiation is also a good indication of their pluripotent state. […]

fiaj1 cells = test: Cerebral organoid differentiation, unguided protocol, fiaj1 line; conditions: fiaj 1
Description: as §1, §2

burb1 cells = test: Cerebral organoid differentiation, unguided protocol, burb1 line
Description: (§3) The so called “unguided protocol” relies on the natural propensity of PSCs to differentiate to neural fate and specifically forebrain when not exposed to any growth factors. The inventors cultured PSCs in Stemflex (Thermo) medium on plates coated with Matrigel growth factor reduced (Corning) and for generation of brain organoids they used STEMdiff Cerebral Organoid Kit (Stemcell Technologies). Despite these highly standardised conditions (FIG. 1A), the outcome of the protocol (i.e. the identity and quality of the tissues produced) can vary depending on the cell line that was used in the protocol or even between different batches of the same line (FIGS. 1 B and C). This makes producing good quality organoids from different lines difficult and unpredictable. To address this variability that plagues not only the neural organoid field but also others that rely on 2D and 3D differentiation to a variety of cell types, the inventors investigated the potential sources of this variability in PSCs and potential treatments to address this problem or, in other words, to standardise the performance of PSCs during differentiation. […]
(§4) To establish such an approach, the inventors analysed the epigenetic state of human pluripotent stem cells and the role of epigenetics in development. […]

sojd3 cells = test: Cerebral organoid differentiation, unguided protocol, sojd3 line; conditions: inhibition of Wnt in culture, Stemflex with 2-3 μM IWP2, long term (>8 passages)
Description: as §3, §4

For `COc1cccc(-c2cn(-c3ccc(CCN4CCC(O)CC4)cc3)c3ncnc(N)c23)c1` [CGP-77675], the “Effect on PS cells in basal culture” value (PS cells) was “outcome, differentiation of PS” and the “Effect: organoid differentiation outcome” value ([1]; inhibition of SRC at basal culture) was “Worse organoid differentiation”.

With `COc1ccc(N(C(=O)Oc2c(C)cccc2C)c2ccnc(Nc3ccc(N4CCN(C)CC4)cc3)n2)c(OC)c1` [WH-4-023] the “Effect: organoid differentiation outcome” value ([1]; inhibition of SRC at organoid generation, alone) was “no improvement alone,” and the “Effect: organoid differentiation outcome” value ([1]; inhibition of SRC at organoid generation, used alongside with HRG) was “improves outcome when used”.

In the case of `O=C(NOC[C@H](O)CO)c1ccc(F)c(F)c1Nc1ccc(I)cc1F` [PD0325901], the “Effect: organoid differentiation” value [2] is reported as “Some improvement in bad” and the “Effect: improvement of organoid differentiation” value (fiaj1 cells; generation of organoids with MEK inhibition) is reported as “batch of kolf2, no”.

For `Cc1ccc2nc(NC(=O)CSc3nc4c(c(=O)n3-c3ccccc3)SCC4)sc2c1` [IWP2], the “Effect: organoid morphology” value [1] was “embedding stage improve”, the “Effect: organoid generation / brain organoid competency” value (burb1 cells; inhibition of Wnt in culture, Stemflex with 2-3 μM IWP2, long term (>8 passages)) was “able to restore organoid competency; also recorded: acquired brain organoid competency; also recorded: improved organoid” and the “Effect: organoid generation / brain organoid competency” value (sojd3 cells) was “did not improve; also recorded: no improvement in sojd3”.

For recombinant human laminin 521 [L521], the “Effect: organoid generation” value (burb1 cells; PSC culture on L521) was “improved organoid generation” and the “Effect: organoid differentiation” value (fiaj1 cells; culture on L521 micropatterns, areas of correct differentiation a small percentage of organoid volume) was “worked to some extent in fiaj 1”.

B1: DKK-1: Wnt inhibition at organoid stage, added at Matrigel embedding (protein, UniProt O94907 32-266, looked up)
Dickkopf-related protein 1: TLNSVLNSNAIKNLPPPLGGAAGHPGSAVSAAPGILYPGGNKYQTIDNYQPYPCAEDEECGTDEYCASPTRGGDAGVQICLACRKRRKRCMRHAMCCPGNYCKNGICVSSDQNHFRGEIEETITESFGNDHSTLDGYSRRTTLSSKMYHTKGQEGSVCLRSSDCASGLCCARHFWSKICKPVLKEGQVCTKHRRKGSHGLEIFQRCYCGEGLSCRIQKDHHQASNSSRLHTCQRH
In the case of B1, the “Effect: organoid morphology” value [1] is reported as “embedding stage improve”.
